# Data from patent US7968582B2, “5(S)-substituted pyrazoline compounds, their preparation and use as medicaments” (Laborotorios Del Dr. Esteve, S.A., priority 2005, dated 2011).
# Assays:
# [1] = biological target: T1, recombinant human cannabinoid 1 receptor (CB1) (Homo sapiens, UniProt P21554); experiment: In vitro determination of antagonism to CB1-receptor, [35S]GTPγS binding assay; type: biochemical; settings: compound 1 μM with agonist WIN 55,212-2 (3 nM to 3 μM); 100% = difference between maximal WIN 55,212-2 effect alone and plus Rimonabant (1 μM); CHO-hCB1 membranes
# T1 construct: expressed in transfected cells; membrane preparation
# T1 sequence (P21554 whole entry): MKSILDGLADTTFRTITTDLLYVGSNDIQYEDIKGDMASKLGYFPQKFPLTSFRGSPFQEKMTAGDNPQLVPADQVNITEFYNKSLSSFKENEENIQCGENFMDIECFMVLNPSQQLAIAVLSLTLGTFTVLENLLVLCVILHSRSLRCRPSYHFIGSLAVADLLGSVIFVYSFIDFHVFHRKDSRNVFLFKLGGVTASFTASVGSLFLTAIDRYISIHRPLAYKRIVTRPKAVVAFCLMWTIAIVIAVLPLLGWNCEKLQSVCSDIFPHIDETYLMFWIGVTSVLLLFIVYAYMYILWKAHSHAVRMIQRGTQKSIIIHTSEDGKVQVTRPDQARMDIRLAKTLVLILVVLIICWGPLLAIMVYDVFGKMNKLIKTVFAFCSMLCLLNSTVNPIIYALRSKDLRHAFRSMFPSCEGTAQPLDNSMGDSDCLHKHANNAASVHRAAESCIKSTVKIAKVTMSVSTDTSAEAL
# Description: VI. In vitro Determination of Antagonism to CB1-Receptor
# In order to obtain cells, culture flasks were washed twice with phosphate buffered saline and scraped. Then, cells were collected by centrifugation (200×g, 10 min) and stored dry at −80° C.
# [^35S]GTPγS Binding Assay:
# The reaction was performed in 96-well plates. […] Filter plates were dried and 30 μl of scintillation liquid was added, Radioactivity was determined using a Wallac Microbeta Trilux. Each experiment was performed at least in duplicate.
# The average of basal [^35S]GTPγS binding was subtracted from all binding data.
# [2] = Chronic administration to animals made obese by a simplified cafeteria diet; type: in vivo, rats
# [3] = Effect of continued administration on body weight in rats; type: in vivo
# Description: V. Determination of the Effect of Continued Administration of the Inventive Compounds on Body Weight in Rats
# The weight of the animals was measured for 36 days, and the data grouped into 3 periods for analysis: Period 1, days 1-8 (period for adaptation of the animals to the environmental conditions: one week without treatment plus first day of treatment); Period 2. days 9-22 (treatment period: two weeks); Period 3, days 23-36 (escape treatment period: two weeks). The administration of the drugs started on day 8, immediately after the animal was weighted, and finished on day 21. The treatment period ranges between one day after first administration and one day after last administration. The drugs were administered i.p. once daily. For comparative purposes, absolute weights were transformed into relative percentages (each weight was divided by that of day 8 and multiplied by 100). […] All results are expressed as mean±S.E.M.
# The dependence of body-weight (expressed as a percentage relative to day 8) on time (number of lays after inclusion in the study) and treatment was assessed by a two-way (time, treatment) analysis of variance (ANOVA) with repeated measures on the time factor. […] The differences between pairs of curves (treatments) were analyzed using appropriate contrasts within the ANOVA test. […]
smiles,measurement,setting,value
"O=C(NN1CCCCC1)C1=NN(c2ccc(Cl)cc2Cl)[C@H](c2ccc(Cl)cc2)C1 [A, (S)-N-piperidinyl-5-(4-chlorophenyl)-1-(2,4-dichlorophenyl)-4,5-dihydro-1H-pyrazole-3-carboxamide]",Antagonism [%],[1],43%
same,body weight versus vehicle-treated controls,"[2]; after 28 days of drug treatment, rats",lower than those of the vehicle-treated controls
same,body weight,"[2]; chronic administration, animals made obese by cafeteria diet (high-fat diet, chocolate, ground peanuts)",significantly decreased body weight
same,effect on plasma lipids (triacylglycerol and glycerol),"[2]; following chronic administration, seems independent of weight loss",positive effect on plasma lipids
same,body weight during treatment period,"[3]; 10 mg/kg i.p. once daily, days 9-22, FIG. 1",significant action during the treatment period
same,body weight in post-treatment period,"[3]; after 10 mg/kg i.p. once daily, days 23-36, FIG. 1",relatively fast recovery of weight
"Cl.O=C(NN1CCCCC1)C1=NN(c2ccc(Cl)cc2Cl)[C@H](c2ccc(Cl)cc2)C1 [A-Hydrochloride, Hydrochloride salt of (S)-N-piperidinyl-5-(4-chlorophenyl)-1-(2,4-dichlorophenyl)-4,5-dihydro-1H-pyrazole-3-carboxamide]",Antagonism [%],[1],−7%
